Experiments:
Assay in all cases: MIC, broth microdilution (CLSI), substance alone or ATB combined with compound at 4 or 8 μg/mL
ECO 190317 = assay type: cell-based, E. coli; details: ECO 190317
Procedure: (§1) Compounds of the present invention were assessed against genotyped bacterial strains alone or in combination with an antibacterial. In the assays, MICs of said compounds or combination of antibiotics with fixed concentrations of said compounds (4 or 8 μg/mL) were determined by the broth microdilution method according to the Clinical Laboratory Standards Institute (CLSI-M7-A7). Briefly, compounds alone according to the invention were prepared in DMSO and spotted (2 μL each) on sterile polystyrene plates (Corning, 3788). Combinations of compounds and antibiotics dilutions were prepared in DMSO and spotted (1 μL each) on sterile polystyrene plates (Corning, 3788). Log phase bacterial suspensions were adjusted to a final density of 5·10^5 CFU/mL in cation-adjusted Mueller-Hinton broth (ca-MHB; Becton-Dickinson and Company) and added to each well (98 μL). Assays including Fosfomycin were supplemented with 25 μg/ml of Glucose-6-phosphate. Microplates were incubated for 16-20 h at 35° C. in ambient air. The MIC of the compounds was defined as the lowest concentration of said compounds that prevented bacterial growth as read by visual inspection. The MIC of ATB at each compound concentration was defined as the lowest concentration of ATB that prevented bacterial growth as read by visual inspection.

ECO UFR39 = assay type: cell-based, E. coli; details: ECO UFR39; with Example 13 at 8 μg/ml
Procedure: as §1

ECL P99 = assay type: cell-based, E. cloacae; details: ECL P99
Procedure: as §1

PAE 105250 = assay type: cell-based, P. aeruginosa; details: PAE 105250
Procedure: as §1

PAE UFR48 = assay type: cell-based, P. aeruginosa; details: PAE UFR48
Procedure: as §1

PAE UFR90 = assay type: cell-based, P. aeruginosa; details: PAE UFR90
Procedure: as §1

SAU 29213 = assay type: cell-based, S. aureus; details: SAU 29213
Procedure: as §1

SPN 49619 = assay type: cell-based, S. pneumoniae; details: SPN 49619
Procedure: as §1

For `CO/N=C(\C(=O)N[C@@H]1C(=O)N2C(C(=O)O)=C(COC(C)=O)CS[C@H]12)c1csc(N)n1` [CTX], which “MIC ATB combined with Example 1 @8 μg/ml” value (ECO 190317; with Example 1 @8 μg/ml) is on record?
Its value is <0.031 µg/mL.

What about the “MIC ATB combined with Example 1 @8 μg/ml” value (ECO 190317; with Example 1 at 8 μg/ml) of the same molecule?
Its value is <0.031 µg/mL.

And the “MIC ATB combined with Example 13 @8 μg/ml” value (ECO 190317; with Example 13 at 8 μg/ml)?
Its value is <0.031 µg/mL.

And the “MIC ATB combined with Example 13 @8 μg/ml” value (ECO UFR39)?
Its value is <0.031 µg/mL.

And the “MIC ATB combined with Example 1 @8 μg/ml” value (ECL P99; with Example 1 @8 μg/ml)?
Its value is <0.031 µg/mL.

And the “MIC ATB combined with Example 1 @8 μg/ml” value (ECL P99; with Example 1 at 8 μg/ml)?
The value was <0.031 µg/mL.

And the “MIC ATB combined with Example 7 @8 μgml” value (ECL P99; with Example 7 at 8 μg/ml)?
Its value is 0.063 µg/mL.

And the “MIC ATB combined with Example 13 @8 μg/ml” value (ECL P99; with Example 13 at 8 μg/ml)?
The value was 1 µg/mL.

What about the “MIC ATB combined with Example 15 @4 μgml” value (ECL P99; with Example 15 at 4 μg/ml) of the same molecule?
The value was “<=0.031 μg/mL”.

And the “MIC ATB combined with Example 1 @8 μg/ml” value (PAE 105250; with Example 1 @8 μg/ml)?
The value was <0.031 µg/mL.

And the “MIC ATB combined with Example 1 @8 μg/ml” value (PAE 105250; with Example 1 at 8 μg/ml)?
Its value is <0.031 µg/mL.

And the “MIC ATB combined with Example 7 @8 μgml” value (PAE 105250; with Example 7 at 8 μg/ml)?
The value was 32 µg/mL.

What about the “MIC ATB combined with Example 11 @8 μg/ml” value (PAE 105250; with Example 11 at 8 μg/ml) of the same molecule?
The value was 32 µg/mL.

What about the “MIC ATB combined with Example 12 @8 μg/ml” value (PAE 105250; with Example 12 at 8 μg/ml) of the same molecule?
The value was >32 µg/mL.

What about the “MIC ATB combined with Example 14 @8 μg/ml” value (PAE 105250; with Example 14 at 8 μg/ml) of the same molecule?
The value was >32 µg/mL.

And the “MIC ATB combined with Example 15 @4 μgml” value (PAE 105250; with Example 15 at 4 μg/ml)?
Its value is 32 µg/mL.

What about the “MIC ATB combined with Example 16 @4 μg/ml” value (PAE 105250; with Example 16 at 4 μg/ml) of the same molecule?
Its value is >32 µg/mL.

And the “MIC ATB combined with Example 1 @8 μg/ml” value (PAE UFR48; with Example 1 @8 μg/ml)?
The value was <0.031 µg/mL.

And the “MIC ATB combined with Example 1 @8 μg/ml” value (PAE UFR48; with Example 1 at 8 μg/ml)?
Its value is <0.031 µg/mL.

What about the “MIC ATB combined with Example 7 @8 μgml” value (PAE UFR48; with Example 7 at 8 μg/ml) of the same molecule?
The value was >32 µg/mL.

And the “MIC ATB combined with Example 11 @8 μg/ml” value (PAE UFR48; with Example 11 at 8 μg/ml)?
Its value is >32 µg/mL.

And the “MIC ATB combined with Example 12 @8 μg/ml” value (PAE UFR48; with Example 12 at 8 μg/ml)?
The value was >32 µg/mL.

What about the “MIC ATB combined with Example 14 @8 μg/ml” value (PAE UFR48; with Example 14 at 8 μg/ml) of the same molecule?
Its value is >32 µg/mL.

And the “MIC ATB combined with Example 15 @4 μgml” value (PAE UFR48; with Example 15 at 4 μg/ml)?
The value was >32 µg/mL.

What about the “MIC ATB combined with Example 16 @4 μg/ml” value (PAE UFR48; with Example 16 at 4 μg/ml) of the same molecule?
The value was >32 µg/mL.

And the “MIC ATB combined with Example 1 @8 μg/ml” value (PAE UFR90; with Example 1 @8 μg/ml)?
The value was <0.031 µg/mL.

What about the “MIC ATB combined with Example 1 @8 μg/ml” value (PAE UFR90; with Example 1 at 8 μg/ml) of the same molecule?
The value was <0.031 µg/mL.

What about the “MIC ATB combined with Example 7 @8 μgml” value (PAE UFR90; with Example 7 at 8 μg/ml) of the same molecule?
The value was >32 µg/mL.

What about the “MIC ATB combined with Example 11 @8 μg/ml” value (PAE UFR90; with Example 11 at 8 μg/ml) of the same molecule?
Its value is >32 µg/mL.

What about the “MIC ATB combined with Example 14 @8 μg/ml” value (PAE UFR90; with Example 14 at 8 μg/ml) of the same molecule?
Its value is >32 µg/mL.

And the “MIC ATB combined with Example 15 @4 μgml” value (PAE UFR90; with Example 15 at 4 μg/ml)?
Its value is >32 µg/mL.

And the “MIC ATB combined with Example 16 @4 μg/ml” value (PAE UFR90; with Example 16 at 4 μg/ml)?
The value was >32 µg/mL.

What about the “MIC ATB alone” value (SAU 29213; antibiotic alone) of the same molecule?
The value was 2 µg/mL.

And the “MIC ATB combined with Example 1 @8 μg/ml” value (SAU 29213; with Example 1 @8 μg/ml)?
The value was 2 µg/mL.

And the “MIC ATB combined with Example 1 @8 μg/ml” value (SAU 29213; with Example 1 at 8 μg/ml)?
Its value is 2 µg/mL.

What about the “MIC ATB combined with Example 7 @8 μgml” value (SAU 29213; with Example 7 at 8 μg/ml) of the same molecule?
The value was 1 µg/mL.

What about the “MIC ATB combined with Example 11 @8 μg/ml” value (SAU 29213; with Example 11 at 8 μg/ml) of the same molecule?
The value was “<=0.031 μg/mL”.

What about the “MIC ATB combined with Example 13 @8 μg/ml” value (SAU 29213; with Example 13 at 8 μg/ml) of the same molecule?
Its value is 1 µg/mL.

And the “MIC ATB combined with Example 15 @4 μgml” value (SAU 29213; with Example 15 at 4 μg/ml)?
The value was 0.5 µg/mL.

And the “MIC ATB alone” value (SPN 49619; antibiotic alone)?
Its value is 0.063 µg/mL.

What about the “MIC ATB combined with Example 1 @8 μg/ml” value (SPN 49619; with Example 1 @8 μg/ml) of the same molecule?
The value was “<=0.031 μg/mL”.

What about the “MIC ATB combined with Example 1 @8 μg/ml” value (SPN 49619; with Example 1 at 8 μg/ml) of the same molecule?
Its value is “<=0.031 μg/mL”.

And the “MIC ATB combined with Example 7 @8 μgml” value (SPN 49619; with Example 7 at 8 μg/ml)?
The value was “<=0.031 μg/mL”.

And the “MIC ATB combined with Example 9 @4 μg/ml” value (SPN 49619; with Example 9 @4 μg/ml)?
The value was “<=0.031 μg/mL”.

What about the “MIC ATB combined with Example 9 @4 μg/ml” value (SPN 49619; with Example 9 at 4 μg/ml) of the same molecule?
The value was “<=0.031 μg/mL”.

What about the “MIC ATB combined with Example 11 @8 μg/ml” value (SPN 49619; with Example 11 at 8 μg/ml) of the same molecule?
Its value is “<=0.031 μg/mL”.

What about the “MIC ATB combined with Example 12 @8 μg/ml” value (SPN 49619; with Example 12 at 8 μg/ml) of the same molecule?
The value was “<=0.031 μg/mL”.

And the “MIC ATB combined with Example 13 @8 μg/ml” value (SPN 49619; with Example 13 at 8 μg/ml)?
The value was “<=0.031 μg/mL”.

What about the “MIC ATB combined with Example 14 @8 μg/ml” value (SPN 49619; with Example 14 at 8 μg/ml) of the same molecule?
The value was “<=0.031 μg/mL”.

What about the “MIC ATB combined with Example 15 @4 μgml” value (SPN 49619; with Example 15 at 4 μg/ml) of the same molecule?
Its value is “<=0.031 μg/mL”.

And the “MIC ATB combined with Example 16 @4 μg/ml” value (SPN 49619; with Example 16 at 4 μg/ml)?
Its value is “<=0.031 μg/mL”.

— patent US20200024278A1, “COMPOSITION COMPRISING ANTIBIOTIC COMPOUND AND AN HETEROCYCLIC COMPOUND AND THEIR USE IN PREVENTING OR TREATING BACTERIAL INFECTIONS” (MUTABILIS, priority 2016, published 2020)
